Patent US12030908B2, “Antimicrobial compounds, compositions, and uses thereof” (Lakewood Amedex, Inc., priority 2017, dated 2024)
Values joined by “and” are separate entries in the source; they are usually repeats but may differ in a detail not shown here. Equal values may be shown once. “Also recorded” adds a separate entry of the source.

What was measured:
P. aeruginosa = assay: MIC in lysogeny broth (LB) at pH 4; type: cell-based
Description: (§1) The MICs are also determined using lysogeny broth (LB) at pH 4 as the growth medium. Under these conditions, Nu-8 is active against E. coli and P. aeruginosa with MICs of 54 and 27 mg/mL, respectively.

E. coli = assay: MIC in lysogeny broth (LB) at pH 4; type: cell-based
Description: as §1

[1] = test system: wild type P. aeruginosa (PAO1; K2732); assay: Bacterial cytological profiling at pH 4, 5.5, 7 (Example 7), P. aeruginosa; type: cell-based; conditions: pH 7, 225 mg/mL
Description: This bacterial cytological profiling (BCP) investigation uses methods and materials described previously by Nonejuie, P., Burkart, M., Poglianoa, K., Pogiano, J. (2013). Bacterial cytological profiling rapidly identifies the cellular pathways targeted by antibacterial molecules. Proc. Natl. Acad. Sci. U.S.A. 110(40):16169-16174. doi: 10.1073/pnas.1311066110.
For viable cell counts, cells are grown to OD600≈0.4 and diluted 1:1 into buffered or unbuffered media containing various compound concentrations. Samples are then collected and serially diluted (1:10) on a 96 well plate. Five microliters from each well are spotted on LB plates, incubated at 30° C., and viable cells are counted the next day.
Samples are collected at 10, 30, 120, and 240 min of exposure for viable cell count and imaging. For imaging, E. coli and S. aureus 200 μL of treated cells per time point are stained with 0.8 μg/mL FM4-64, 1.5 μg/mL DAPI, and 0.4 μM SYTOXGreen (Molecular Probes/Invitrogen). P. aeruginosa samples are stained 0.4 μM SYTOX Green, 28 μg/mL DAPI, and 1 μg/mL FM 4-64. Cells are transferred to an agarose pad (20% LB, 1% agarose) for imaging.
For Nu-3 and Nu-8 stocks (at pH 4, 5.5 and 7), stock concentration is 500 mg/mL. For pH 4, the stocks are prepared by dissolving Nu-3 in 25 mM citrate buffer and Nu-8 in 350 mM citric acid. […]

[2] = test system: Streptococcus pneumoniae (PRSP); assay: MIC at pH 3.5, CLSI, Mueller-Hinton broth; type: cell-based
[3] = test system: Acinetobacter baumannii (ATCC 19606); assay: Neutropenic lung infection model in mice, lung bacterial burden (Example 25); type: in vivo, BALB/c mice; conditions: for antibacterial effect on A. baumannii vs day 3 vehicle control: 10% solution aerosol once daily, p<0.05; for Log10 CFU/g lung Mean ± SD / Log10 CFU/g lung: Nu-8 (10%), aerosol, 2 h post end of treatment; for Log10 CFU/g lung Mean ± SD: group mean; for Log10 CFU/g lung: individual animals
Description: Neutropenic, BALB/c female mice, all of which were from 6 to 8 weeks of age, were infected intranasally with ˜2×10^7 CFU/lung Acinetobacter baumannii (ATCC 19606). Twenty-four hours after infection; animals were treated by aerosol route with vehicle or Nu-8 (10% solution), once daily for one, three, and five days. Following treatment for 1, 3, and 5 days, animals were terminated, and lung tissues were collected to determine the bacterial load.
The mice were separated into cohorts in accordance with Table 26.
On day −4 (four days before the date of infection), each mouse was dosed with a single intraperitoneal injection of cyclophosphamide equivalent to 150 mg/kg and returned to its cage. On day −1 (one day before infection) each mouse received a dose equivalent to 100 mg/kg of cyclophosphamide.
On day −1, an aliquot from glycerol stocks of Acinetobacter baumannii (ATCC19606) was thawed, inoculated into fresh Casein Soybean Digest Broth (CSDB) and incubated overnight at 37° C.
On the day of infection (Day 0), the overnight culture was checked, centrifuged and the cells were pelleted and resuspended in sterile normal saline to obtain approximately 10^9 CFU/ml Acinetobacter baumannii, which was used for infection. The inoculum was serially diluted ten-fold in sterile CSDB and 0.05 ml of six dilutions was plated onto CSD Agar plates to determine the viable count (CFU/ml) of inoculum.
Animals were divided into different groups as specified in the experimental design (Table 26). Infections were conducted in a biological safety cabinet, with appropriate personnel protection. Mice were placed into an induction chamber and anesthesia was induced by exposing the animals to 3%-5% Isoflurane in an oxygen flow set at approximately 1 liter per minute (LPM). Once the animals were in a sufficiently deep plane of anesthesia, they were removed and infected. Infection was done by instilling 0.02 ml (containing ˜1×10^9 CFU/ml) of the inoculum; 10 μl was instilled into each nostril of the anesthetized animal intra-nasally using a 10 μl pipette (˜2×10^7 CFU/animal). A gentle shaking/mixing of inoculum between two animals was followed for uniform distribution.
The vehicle used for the test compound was saline (0.9% NaCl adjusted to pH 3.5 with citric acid). To make 10% Nu-8 solution, 15 g of compound was weighed and dissolved in 145 ml of 0.9% NaCl; pH of solution was adjusted to 3.5 by adding 2.4 ml of citric acid solution and to this solution, 2.6 ml of 0.9% NaCl solution was added to make up the volume to 150 ml. The same procedure was followed on day 2, 3, 4 and 5.
Treatment was initiated twenty-four hours post infection. Test formulations were administered by aerosol route with nose-only apparatus connected to a nebulizer (Omron Ne-C28 Compressor Nebulizer with a volume capacity of 15 ml, Particle size 3 μm, nebulization rate: 0.5 ml/min, and Aerosol output rate: 0.09 ml/min). The formulation prepared previously was placed into the nebulizer fluid cup; animals were placed in the nose-only apparatus and the entire system was placed inside a Class II Biosafety Cabinet. Animals received nebulization for 20 min, followed by a 30-minute rest and then an additional 20-minute exposure at the same dose concentration (the flow rate and percentage of test material available at the inhalation port was 16% of the initial concentration in the nebulizer if the test compound is in solution).
Groups of animals were euthanized at 2 h post treatment, as specified in the experimental design, by an overdose of CO2 in an appropriate exposure chamber.
The euthanized animals were dipped into 70% ethanol for surface decontamination. Lungs were aseptically excised, weighed, placed in a 2 ml centrifuge tube containing 1 ml of sterile CSDB broth, and homogenized (Omni Tip (220THB handheld)). Serial ten-fold dilutions of the lung homogenates were prepared in sterile CSDB broth and 0.05 ml of four dilutions for each lung was plated onto CSDA agar plates. […]

## CCCCOP(=O)(O)OC[C@H]1O[C@@H](n2ccc(N)nc2=O)C[C@@H]1OP(=O)(O)OCCCC [Nu-8, sodium ((2R,3S,5R)-5-(4-amino-2-oxopyrimidin-1(2H)-yl)-3-((butoxyoxidophosphor-yl)oxy)tetrahydrofuran-2-yl)methyl butyl phosphate]
P. aeruginosa
  MIC: 27 mg/mL
E. coli
  MIC: 54 mg/mL
[1]
  cell growth: slightly lower than that at pH 7 alone
[1]; 10 min, not persistent
  cell permeability: ~37%
[2]
  Nu-8 MIC (mg/mL) at pH 3.5: 9.38-18.75 mg/mL
[3]; day 3
  antibacterial effect on A. baumannii vs day 3 vehicle control: significant antibacterial effect; also recorded: significant antibacterial activity
[3]; day 5
  antibacterial effect on A. baumannii vs day 3 vehicle control: significant antibacterial effect; also recorded: significant antibacterial activity
[3]; 10% solution aerosol, day 1, p>0.05
  activity vs vehicle control on day 1: No significant activity
[3]; 3 doses, once daily for 3 days, p < 0.05 vs corresponding vehicle control
  Log10 CFU/g lung Mean ± SD: 4.01 ± 0.72 Log10 CFU/g lung
[3]; 3 doses, once daily for 3 days
  Log10 CFU/g lung: 4.75 Log10 CFU/g lung and 3.02 Log10 CFU/g lung and 4.34 Log10 CFU/g lung and 3.19 Log10 CFU/g lung and 4.29 Log10 CFU/g lung and 4.46 Log10 CFU/g lung
[3]; 5 doses, once daily for 5 days, p < 0.05 vs day 3 vehicle control
  Log10 CFU/g lung Mean ± SD: 2.69 ± 0.16 Log10 CFU/g lung
[3]; 5 doses, once daily for 5 days
  Log10 CFU/g lung: 2.76 Log10 CFU/g lung and 2.51 Log10 CFU/g lung and 2.71 Log10 CFU/g lung and 2.62 Log10 CFU/g lung and 2.96 Log10 CFU/g lung and 2.60 Log10 CFU/g lung
[3]; single dose
  Log10 CFU/g lung Mean ± SD: 5.67 ± 0.47 Log10 CFU/g lung
  Log10 CFU/g lung: 5.51 Log10 CFU/g lung and 6.03 Log10 CFU/g lung and 5.54 Log10 CFU/g lung and 6.30 Log10 CFU/g lung and 5.72 Log10 CFU/g lung and 4.93 Log10 CFU/g lung
[3]; following treatment for 5 days
  decrease in lung burden compared to the vehicle on day 1: > 3 Log10) CFU/g lung
